Reference: ChEMBL document CHEMBL1201862, “PubChem BioAssay data set” (2004)
Calls of active or inactive are those of the source.

Experiments:
Streptokinase A = biological target: T1, Streptokinase A (Streptococcus pyogenes serotype M1, UniProt P10520); assay: viability-normalized secreted streptokinase activity reduction – plasminogen activation absorbance, OD405, dose response (AID 1914); assay type: functional, Streptococcus pyogenes M1 GAS;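 also: secreted streptokinase activity via plasminogen activation per viability signal from cell pellet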
T1 sequence (P10520 whole entry): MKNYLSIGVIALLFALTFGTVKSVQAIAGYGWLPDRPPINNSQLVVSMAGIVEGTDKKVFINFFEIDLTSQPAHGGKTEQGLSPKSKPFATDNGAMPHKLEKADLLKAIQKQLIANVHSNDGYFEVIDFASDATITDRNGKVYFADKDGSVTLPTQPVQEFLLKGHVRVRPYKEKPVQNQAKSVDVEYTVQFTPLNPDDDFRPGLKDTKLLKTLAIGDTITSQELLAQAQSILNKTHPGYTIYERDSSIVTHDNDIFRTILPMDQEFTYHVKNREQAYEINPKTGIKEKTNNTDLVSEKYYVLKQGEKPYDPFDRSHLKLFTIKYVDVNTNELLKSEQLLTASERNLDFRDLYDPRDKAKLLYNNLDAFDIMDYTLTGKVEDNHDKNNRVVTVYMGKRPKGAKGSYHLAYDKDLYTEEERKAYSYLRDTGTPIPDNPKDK

Streptococcus = assay: GAS UMAA2166 growth inhibition – luminescence, BacTiterGlo, counter-screen for streptokinase expression inhibitor project, dose response (AID 1915); assay type: functional, organism-based;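 also: potency for reduction of bacterial viability or growth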
[1] = biological target: Low molecular weight phosphotyrosine protein phosphatase (Homo sapiens, UniProt P24666); assay type: functional; conditions: read-out: IC50_Mean;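 also: Dose-response confirmation assay measuring inhibition of LMPTP enzyme activity by fluorescence intensity read-out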
[2] = test system: Streptococcus sp. 'group A'; assay: Streptococcus pyogenes SK(-)GAS viability under kanamycin – luminescence, BacTiterGlo, confirmation, counter-screen for streptokinase expression inhibitor project, dose response (AID 1900); assay type: functional, organism-based
[3] = biological target: T2, High affinity choline transporter 1 (Homo sapiens, UniProt Q9GZV3); assay: human choline transporter blockers, potency – cell-based, 5-point CRC, membrane potential dye, dose response (AID 504840); assay type: functional
T2 sequence (Q9GZV3 whole entry): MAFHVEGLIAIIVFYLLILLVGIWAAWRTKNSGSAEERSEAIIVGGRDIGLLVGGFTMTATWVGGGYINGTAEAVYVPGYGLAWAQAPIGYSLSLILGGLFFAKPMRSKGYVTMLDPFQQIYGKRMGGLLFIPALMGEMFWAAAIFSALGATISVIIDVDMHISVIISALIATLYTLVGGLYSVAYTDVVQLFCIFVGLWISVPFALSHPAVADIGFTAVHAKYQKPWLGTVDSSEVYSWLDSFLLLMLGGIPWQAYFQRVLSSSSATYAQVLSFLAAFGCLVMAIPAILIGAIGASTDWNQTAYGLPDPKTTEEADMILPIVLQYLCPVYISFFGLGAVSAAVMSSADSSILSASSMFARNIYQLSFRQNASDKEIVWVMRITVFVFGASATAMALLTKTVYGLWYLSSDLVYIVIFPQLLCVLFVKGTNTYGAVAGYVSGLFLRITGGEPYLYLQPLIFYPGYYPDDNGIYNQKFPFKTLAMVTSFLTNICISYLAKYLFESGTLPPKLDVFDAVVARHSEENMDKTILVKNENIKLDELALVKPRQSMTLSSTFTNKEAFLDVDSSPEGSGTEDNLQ

[4] = biological target: T2, High affinity choline transporter 1; assay: human choline transporter blockers, potency – cell-based, 10-point CRC, membrane potential dye, dose response (AID 588401); assay type: functional;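 also: membrane potential dye fluorescence of choline-evoked depolarization via CHT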
Steroidogenic factor 1 = Steroidogenic factor 1 (Homo sapiens, UniProt Q13285); assay: Counterscreen for inverse agonists of the liver receptor homolog-1 (LRH-1; NR5A2): Luminescence-based cell-based high throughput dose response assay to identify inverse agonists of the Steroidogenic Factor 1 Nuclear Receptor (SF1; NR5A1).; assay type: functional
[5] = nonselective StAR promoter luciferase inhibitors – cell-based, luminescence, luciferase reporter, counter-screen for LRH-1 inverse agonist project, dose response (AID 651969); assay type: functional
[6] = biological target: Nuclear receptor subfamily 5 group A member 2 (Homo sapiens, UniProt O00482); assay type: functional, cell-based;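 also: HEK293T cells transfected with LRH-1 and a StAR promoter luciferase reporter; potency for inhibitors that lower LRH-1 driven reporter light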
[7] = biological target: Tyrosine-protein phosphatase non-receptor type 11 (Homo sapiens, UniProt Q06124); assay: PTPN11 enzyme inhibitors – biochemical, selectivity assay for STEP inhibitor project, dose response (AID 602367); assay type: functional; conditions: read-out: IC50_Mean
[8] = biological target: Tyrosine-protein phosphatase non-receptor type 5 (Homo sapiens, UniProt P54829); assay: PTPN5 enzyme inhibition – biochemical, fluorescence intensity, uHTS hits, confirmation (AID 602372); assay type: functional; conditions: read-out: IC50_Mean
[9] = biological target: Dual specificity protein phosphatase 3 (Homo sapiens, UniProt P51452); assay: VHR phosphatase inhibition, dose response, selectivity assay for STEP inhibitor project, biochemical (AID 602374); assay type: functional; conditions: read-out: IC50_Mean
[10] = biological target: T3, Tyrosine-protein phosphatase non-receptor type 22 (Homo sapiens, UniProt Q9Y2R2); assay: lymphoid phosphatase LYP inhibitors – biochemical, selectivity assay for STEP inhibitor project, dose response (AID 624241); assay type: functional
T3 sequence (Q9Y2R2 whole entry): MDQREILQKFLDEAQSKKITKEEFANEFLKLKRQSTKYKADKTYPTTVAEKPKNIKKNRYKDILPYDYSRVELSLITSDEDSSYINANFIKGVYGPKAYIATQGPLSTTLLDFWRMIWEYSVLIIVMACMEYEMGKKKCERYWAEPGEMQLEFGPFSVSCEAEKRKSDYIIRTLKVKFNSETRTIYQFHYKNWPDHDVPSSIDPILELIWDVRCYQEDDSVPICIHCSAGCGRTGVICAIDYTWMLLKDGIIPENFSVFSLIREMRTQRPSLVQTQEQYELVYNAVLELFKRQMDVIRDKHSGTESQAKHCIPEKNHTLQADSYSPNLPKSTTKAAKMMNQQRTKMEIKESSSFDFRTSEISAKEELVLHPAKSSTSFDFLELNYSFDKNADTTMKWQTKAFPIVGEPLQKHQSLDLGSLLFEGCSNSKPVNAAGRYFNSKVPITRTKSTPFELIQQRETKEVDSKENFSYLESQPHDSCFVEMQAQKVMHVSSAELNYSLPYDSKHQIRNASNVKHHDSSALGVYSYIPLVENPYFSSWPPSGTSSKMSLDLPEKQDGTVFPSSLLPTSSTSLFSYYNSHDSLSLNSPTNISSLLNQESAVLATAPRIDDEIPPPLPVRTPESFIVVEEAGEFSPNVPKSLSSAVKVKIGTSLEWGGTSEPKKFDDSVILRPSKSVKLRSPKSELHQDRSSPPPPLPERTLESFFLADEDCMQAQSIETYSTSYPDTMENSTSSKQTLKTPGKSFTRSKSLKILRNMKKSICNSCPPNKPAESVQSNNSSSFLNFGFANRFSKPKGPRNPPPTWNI

[11] = biological target: Potassium voltage-gated channel subfamily KQT member 2 (Rattus norvegicus, UniProt O88943); assay: blockers of KCNQ2 channel current – cell-based, automated electrophysiology, set II, rat KCNQ2, dose response (AID 588637); assay type: functional
INS1 = assay: INS-1E survival protection against cytokine death – cell-based, luminescence, retest, dose response (AID 449756); assay type: functional; conditions: Rattus norvegicus;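 also: cell death triggered by IL-1 beta plus TNF-alpha plus IFN-gamma mixture; protective hits raise ATP signal compared with cytokine alone wells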
[12] = alpha-synuclein stem-loop luciferase translation blockers – H4 neuroglioma cells, luminescence, confirmation (AID 1988); assay type: functional, cell-based
[13] = loss of viability in HepG2 cells – cell-based, CellTiter-Glo, cherry-picked, cytotoxicity control for Shn3 inhibitor project, dose response (AID 624134); assay type: functional
[14] = non-specific 3'UTR reporter inhibition in Clone20-Shn3RL – cell-based, Renilla luciferase, cherry-picked, counter-screen for Shn3 inhibitor project, dose response (AID 624133); assay type: functional
[15] = Luminescence Cell-Based Dose Response HTS to Identify Inhibitors of 5'UTR Stem-Loop Driven Prion Protein mRNA Translation in H4 Neuroglioblastoma Cells. [Related pubchem assays: 1827 (Project Summary), 1813 (Primary HTS)]; assay type: functional
cells [16] = assay type: functional, cell-based
[17] = biological target: Photoreceptor-specific nuclear receptor (Homo sapiens, UniProt Q9Y5X4); assay type: functional, cell-based;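 also: CHO-S cells with Gal4-NCOR and VP16-NR2E3 two-hybrid luciferase reporter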
[18] = Trypanosoma cruzi growth suppression in host cells – NIH3T3 host cells, beta-gal luminescence, confirmation (AID 2044); assay type: functional, cell-based;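 also: intracellular parasites grown in NIH/3T3 mouse fibroblasts as host cells; luminescent beta-galactosidase reporter signal from transgenic T. cruzi replicating inside host cells; inhibitors lower the luminescence signal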
[19] = reduction of Shn3 3'UTR-driven luciferase in osteoblasts – cell-based, Clone20 osteoblasts, firefly luciferase, cherry-picked, dose response (AID 624132); assay type: functional;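 also: firefly luciferase luminescence from reporter carrying the Shn3 3'UTR in osteoblasts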
cells [20] = assay type: functional, cell-based; remark: listed apart in the source
[21] = NIH3T3 cell viability loss, ATP content – CellTiter-Glo luminescence, cherry-pick, set 2, cytotoxicity control for HSP40 inhibitor project, dose response (AID 624265); assay type: functional
[22] = NIH3T3 cell viability loss – ATP luminescence, mouse fibroblasts, counter-screen, dose response (AID 2010); assay type: functional, cell-based;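 also: cells exposed to compound for about 90 hours before reading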
[23] = luciferase reporter signal suppression in cells – H4 neuroglioma cells, luminescence, dose response (AID 1990); assay type: functional, cell-based
[24] = biological target: Ras and Rab interactor 1/Tyrosine-protein kinase ABL1 (Homo sapiens, UniProt P00519+Q13671); assay type: functional;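 also: biochemical TR-FRET dose-response test measuring inhibition of binding between Rin1 and Abl proteins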
[25] = biological target: Apoptotic protease-activating factor 1 (Homo sapiens, UniProt O14727); assay: SAR analysis of small molecule Activators of Apaf-1 in a Fluorescent assay.; assay type: functional; conditions: read-out: EC50_Mean;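 also: caspase-3 cleavage of fluorogenic Rh110 DEVD substrate downstream of apoptosome activation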
[26] = biological target: T4, Methionyl-tRNA synthetase, putative (Trypanosoma brucei brucei, UniProt Q38C91); assay type: functional, Trypanosoma brucei brucei strain 927/4 GUTat10.1
[27] = biological target: T4, Methionyl-tRNA synthetase, putative; assay type: functional, Trypanosoma brucei brucei strain 927/4 GUTat10.1; remark: listed apart in the source
[28] = Counterscreen for inhibitors of Trypanosoma brucei methionyl tRNA synthetase (MetRS): Luminescence-based cell-based high throughput dose response assay to identify compounds that are cytotoxic to Jurkat human T lymphocyte cells.; assay type: functional
[29] = biological target: T5, Aryl hydrocarbon receptor (Homo sapiens, UniProt P35869); conditions: Potency;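 also: confirmatory quantitative high-throughput screen measuring activation of the AhR signaling pathway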
T5 sequence (P35869 whole entry): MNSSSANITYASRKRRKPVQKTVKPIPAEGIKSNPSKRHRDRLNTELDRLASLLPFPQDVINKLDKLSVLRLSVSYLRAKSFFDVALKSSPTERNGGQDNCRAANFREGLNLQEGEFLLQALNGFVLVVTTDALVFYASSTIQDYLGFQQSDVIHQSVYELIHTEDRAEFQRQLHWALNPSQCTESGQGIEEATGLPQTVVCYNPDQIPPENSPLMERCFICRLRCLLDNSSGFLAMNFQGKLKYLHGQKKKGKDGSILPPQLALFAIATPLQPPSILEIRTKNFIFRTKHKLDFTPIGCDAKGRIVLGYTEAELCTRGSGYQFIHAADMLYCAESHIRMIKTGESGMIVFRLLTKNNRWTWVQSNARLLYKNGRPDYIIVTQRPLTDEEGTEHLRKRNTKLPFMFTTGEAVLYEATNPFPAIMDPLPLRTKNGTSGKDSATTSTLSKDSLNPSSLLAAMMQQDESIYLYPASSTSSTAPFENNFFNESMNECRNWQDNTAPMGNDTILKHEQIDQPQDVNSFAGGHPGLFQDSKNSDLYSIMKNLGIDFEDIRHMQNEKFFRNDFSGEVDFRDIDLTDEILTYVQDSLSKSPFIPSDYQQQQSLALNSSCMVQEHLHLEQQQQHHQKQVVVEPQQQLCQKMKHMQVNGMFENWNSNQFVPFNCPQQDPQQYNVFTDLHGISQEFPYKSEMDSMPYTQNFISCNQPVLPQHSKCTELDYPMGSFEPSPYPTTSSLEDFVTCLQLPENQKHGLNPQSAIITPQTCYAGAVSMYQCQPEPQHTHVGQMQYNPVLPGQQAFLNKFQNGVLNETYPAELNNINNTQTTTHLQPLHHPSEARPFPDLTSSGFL

T4 sequence (Q38C91 whole entry): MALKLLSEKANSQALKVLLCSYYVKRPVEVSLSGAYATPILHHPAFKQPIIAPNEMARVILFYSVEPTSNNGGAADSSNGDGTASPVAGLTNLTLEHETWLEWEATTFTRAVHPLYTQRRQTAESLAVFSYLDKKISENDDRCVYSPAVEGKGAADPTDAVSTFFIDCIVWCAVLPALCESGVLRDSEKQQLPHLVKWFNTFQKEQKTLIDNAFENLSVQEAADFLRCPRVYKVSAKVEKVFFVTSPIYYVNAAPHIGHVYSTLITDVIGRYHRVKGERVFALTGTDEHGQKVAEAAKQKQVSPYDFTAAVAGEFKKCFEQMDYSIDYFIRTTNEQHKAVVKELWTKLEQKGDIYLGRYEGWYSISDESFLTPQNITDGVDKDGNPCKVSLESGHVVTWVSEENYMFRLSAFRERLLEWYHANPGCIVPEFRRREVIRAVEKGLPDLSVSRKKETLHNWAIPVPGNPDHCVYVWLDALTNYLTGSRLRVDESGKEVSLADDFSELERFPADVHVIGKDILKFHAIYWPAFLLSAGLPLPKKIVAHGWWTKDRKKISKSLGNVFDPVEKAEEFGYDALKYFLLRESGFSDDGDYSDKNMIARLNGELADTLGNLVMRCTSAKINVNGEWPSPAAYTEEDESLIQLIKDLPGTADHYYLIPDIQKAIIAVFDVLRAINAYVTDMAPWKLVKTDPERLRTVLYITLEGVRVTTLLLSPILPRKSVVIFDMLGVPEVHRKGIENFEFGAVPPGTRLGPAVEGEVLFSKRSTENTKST
Sequence of Dual specificity protein phosphatase 3 (P51452 whole entry): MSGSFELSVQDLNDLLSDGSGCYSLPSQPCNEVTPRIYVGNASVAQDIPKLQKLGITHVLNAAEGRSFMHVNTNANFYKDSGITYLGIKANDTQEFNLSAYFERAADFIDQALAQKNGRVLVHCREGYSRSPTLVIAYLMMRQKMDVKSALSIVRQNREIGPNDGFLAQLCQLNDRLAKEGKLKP
Sequence of Ras and Rab interactor 1/Tyrosine-protein kinase ABL1 (P00519 whole entry): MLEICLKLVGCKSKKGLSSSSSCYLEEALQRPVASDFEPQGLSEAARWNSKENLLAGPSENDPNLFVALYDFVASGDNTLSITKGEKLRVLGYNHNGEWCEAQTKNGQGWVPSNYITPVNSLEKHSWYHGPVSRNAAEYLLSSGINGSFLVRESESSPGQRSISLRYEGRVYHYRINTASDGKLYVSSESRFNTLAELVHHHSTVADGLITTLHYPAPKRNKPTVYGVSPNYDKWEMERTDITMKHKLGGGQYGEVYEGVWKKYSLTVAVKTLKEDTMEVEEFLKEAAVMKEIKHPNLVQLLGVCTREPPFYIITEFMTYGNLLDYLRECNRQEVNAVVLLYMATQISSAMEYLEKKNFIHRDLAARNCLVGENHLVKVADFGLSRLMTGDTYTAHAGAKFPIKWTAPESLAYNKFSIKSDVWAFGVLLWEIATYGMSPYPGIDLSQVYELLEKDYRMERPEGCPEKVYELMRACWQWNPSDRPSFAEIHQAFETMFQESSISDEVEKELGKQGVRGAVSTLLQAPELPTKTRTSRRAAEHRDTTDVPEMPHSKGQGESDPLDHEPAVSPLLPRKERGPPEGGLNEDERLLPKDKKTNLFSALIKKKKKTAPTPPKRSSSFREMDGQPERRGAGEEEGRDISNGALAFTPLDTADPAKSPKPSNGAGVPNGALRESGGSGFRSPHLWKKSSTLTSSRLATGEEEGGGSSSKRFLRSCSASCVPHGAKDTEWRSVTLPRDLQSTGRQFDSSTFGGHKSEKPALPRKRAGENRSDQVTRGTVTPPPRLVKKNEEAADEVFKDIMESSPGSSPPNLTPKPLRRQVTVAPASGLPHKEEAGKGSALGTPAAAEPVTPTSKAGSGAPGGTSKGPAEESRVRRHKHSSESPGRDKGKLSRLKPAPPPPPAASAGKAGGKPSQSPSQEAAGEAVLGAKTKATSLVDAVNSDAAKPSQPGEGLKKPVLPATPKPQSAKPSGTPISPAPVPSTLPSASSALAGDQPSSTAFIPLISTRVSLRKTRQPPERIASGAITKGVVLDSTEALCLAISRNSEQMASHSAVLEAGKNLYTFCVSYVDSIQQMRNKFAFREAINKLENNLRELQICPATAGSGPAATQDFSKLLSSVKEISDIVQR
Sequence of Ras and Rab interactor 1/Tyrosine-protein kinase ABL1 (Q13671 whole entry): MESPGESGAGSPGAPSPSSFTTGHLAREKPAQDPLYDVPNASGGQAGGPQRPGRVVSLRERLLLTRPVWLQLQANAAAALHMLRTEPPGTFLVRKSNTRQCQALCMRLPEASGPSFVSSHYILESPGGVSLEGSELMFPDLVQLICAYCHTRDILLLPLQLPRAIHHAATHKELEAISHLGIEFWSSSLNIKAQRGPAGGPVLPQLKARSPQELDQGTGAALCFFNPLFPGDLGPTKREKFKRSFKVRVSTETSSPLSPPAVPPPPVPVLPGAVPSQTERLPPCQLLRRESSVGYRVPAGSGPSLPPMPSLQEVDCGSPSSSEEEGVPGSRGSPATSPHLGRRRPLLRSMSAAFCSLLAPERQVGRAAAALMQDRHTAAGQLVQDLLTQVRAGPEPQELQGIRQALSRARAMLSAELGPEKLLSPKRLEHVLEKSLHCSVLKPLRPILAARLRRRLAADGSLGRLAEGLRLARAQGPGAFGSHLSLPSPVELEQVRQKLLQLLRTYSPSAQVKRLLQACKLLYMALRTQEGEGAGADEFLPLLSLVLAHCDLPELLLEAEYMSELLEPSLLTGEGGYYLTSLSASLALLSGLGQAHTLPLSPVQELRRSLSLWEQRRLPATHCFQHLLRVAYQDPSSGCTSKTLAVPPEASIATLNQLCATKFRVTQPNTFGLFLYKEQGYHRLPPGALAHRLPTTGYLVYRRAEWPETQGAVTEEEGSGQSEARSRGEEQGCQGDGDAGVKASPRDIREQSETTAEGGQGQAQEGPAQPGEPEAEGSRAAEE
Sequence of Apoptotic protease-activating factor 1 (O14727 whole entry): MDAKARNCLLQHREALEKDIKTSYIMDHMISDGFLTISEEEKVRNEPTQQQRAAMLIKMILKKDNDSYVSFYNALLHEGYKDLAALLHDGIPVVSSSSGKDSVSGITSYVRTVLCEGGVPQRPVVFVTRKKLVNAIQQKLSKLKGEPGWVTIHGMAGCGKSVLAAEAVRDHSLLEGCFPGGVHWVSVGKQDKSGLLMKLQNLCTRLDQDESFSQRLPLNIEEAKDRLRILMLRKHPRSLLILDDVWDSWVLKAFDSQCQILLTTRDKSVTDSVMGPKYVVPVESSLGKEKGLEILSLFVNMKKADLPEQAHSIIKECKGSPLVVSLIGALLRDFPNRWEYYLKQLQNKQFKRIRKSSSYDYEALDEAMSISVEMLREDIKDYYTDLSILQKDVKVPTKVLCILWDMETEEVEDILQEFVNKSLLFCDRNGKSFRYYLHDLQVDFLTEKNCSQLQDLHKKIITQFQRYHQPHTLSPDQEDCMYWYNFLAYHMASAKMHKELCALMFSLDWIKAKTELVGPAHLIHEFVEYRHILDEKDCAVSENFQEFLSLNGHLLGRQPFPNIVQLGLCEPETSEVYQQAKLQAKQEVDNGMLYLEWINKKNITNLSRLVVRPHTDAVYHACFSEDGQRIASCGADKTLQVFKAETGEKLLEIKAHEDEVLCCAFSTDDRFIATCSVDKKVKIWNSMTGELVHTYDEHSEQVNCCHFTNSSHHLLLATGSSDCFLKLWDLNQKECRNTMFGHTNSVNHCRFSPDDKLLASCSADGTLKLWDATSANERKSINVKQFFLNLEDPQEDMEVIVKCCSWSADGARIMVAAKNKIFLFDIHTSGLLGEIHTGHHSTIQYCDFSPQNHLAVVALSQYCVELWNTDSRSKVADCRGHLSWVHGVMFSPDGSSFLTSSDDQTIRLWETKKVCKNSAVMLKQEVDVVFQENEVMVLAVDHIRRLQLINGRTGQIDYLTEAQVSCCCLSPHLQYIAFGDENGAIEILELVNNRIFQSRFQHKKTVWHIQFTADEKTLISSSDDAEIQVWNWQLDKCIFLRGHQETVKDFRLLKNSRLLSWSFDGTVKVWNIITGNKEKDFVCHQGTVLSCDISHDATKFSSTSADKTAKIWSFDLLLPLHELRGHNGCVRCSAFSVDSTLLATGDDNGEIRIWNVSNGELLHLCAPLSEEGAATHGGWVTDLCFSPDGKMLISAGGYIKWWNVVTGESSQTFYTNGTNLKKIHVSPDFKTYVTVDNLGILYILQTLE
Sequence of Tyrosine-protein phosphatase non-receptor type 5 (P54829 whole entry): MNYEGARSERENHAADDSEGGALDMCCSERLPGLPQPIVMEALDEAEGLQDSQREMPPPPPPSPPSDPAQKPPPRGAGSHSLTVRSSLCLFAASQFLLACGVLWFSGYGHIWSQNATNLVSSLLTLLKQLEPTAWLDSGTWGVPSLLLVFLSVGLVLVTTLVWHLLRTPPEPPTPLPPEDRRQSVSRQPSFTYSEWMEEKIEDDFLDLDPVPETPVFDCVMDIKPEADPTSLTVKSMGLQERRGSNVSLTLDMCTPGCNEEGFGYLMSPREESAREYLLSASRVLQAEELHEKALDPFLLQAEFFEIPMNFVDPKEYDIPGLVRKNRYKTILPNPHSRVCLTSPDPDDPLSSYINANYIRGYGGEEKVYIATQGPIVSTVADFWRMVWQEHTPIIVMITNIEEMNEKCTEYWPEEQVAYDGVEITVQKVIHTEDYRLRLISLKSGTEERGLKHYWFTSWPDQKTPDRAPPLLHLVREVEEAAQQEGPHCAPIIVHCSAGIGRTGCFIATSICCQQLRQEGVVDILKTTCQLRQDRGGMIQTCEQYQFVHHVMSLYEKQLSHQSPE
Sequence of Low molecular weight phosphotyrosine protein phosphatase (P24666 whole entry): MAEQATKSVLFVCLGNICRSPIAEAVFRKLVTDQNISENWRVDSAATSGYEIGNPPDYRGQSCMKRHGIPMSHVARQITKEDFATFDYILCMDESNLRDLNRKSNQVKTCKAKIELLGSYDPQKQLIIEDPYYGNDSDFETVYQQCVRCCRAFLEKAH

CCn1cc(C(=O)O)c(=O)c2cc(F)c(N3CCN(C(=S)NC(=O)c4cc(OC)cc(OC)c4)CC3)cc21
EC50 (Streptokinase A): > 150 µM (not active)
EC50 (Streptococcus): 30.2 µM (active)
IC50 [1]: 1.47 µM (active)
EC50 [2]: 2.89 µM (active)

CCN(CC)CCCNC(=O)c1cn(CC)c2ccc(S(=O)(=O)N3CCc4ccccc4C3)cc2c1=O
IC50 [3]: 4.17 µM (active)
IC50 [4]: 2.67 µM (active)

COc1cc([N+](=O)[O-])ccc1NC(=O)Cn1ccsc1=N
IC50 (Steroidogenic factor 1): 1.95 µM (active)
IC50 [5]: 35.9 µM (inactive)
IC50 [6]: 35.9 µM (inactive)

N#CNc1nc(O)cc(=O)[nH]1
IC50 [7]: 2.2 µM (active)
IC50 [8]: 7.69 µM (active)
IC50 [9]: 1.24 µM (active)
IC50 [10]: 11.5 µM (active)

CN(C)S(=O)(=O)c1ccc(N2CCCC2)c(C(=O)NNC(=O)c2ccc(Br)cc2)c1
IC50 [11]: 3.72 µM (active)

COc1cnc(-c2ccccn2)nc1N(C)c1ccccc1
AC50 (INS1): 4.34 µM (active)
EC50 [12]: > 120 µM (not active)
AC50 [13]: 4.02 µM (active)
AC50 [14]: 0.92 µM (active)
EC50 [15]: 7.24 µM (active)
EC50 (cells [16]): > 350 µM (not active)
IC50 [17]: 4.58 µM (active)
EC50 [18]: 1.89 µM (active)
AC50 [19]: 1.83 µM (active)
EC50 (cells [20]): 8.25 µM (active)
AbsAC35_uM [21]: 62.35 µM
EC50 (Streptococcus): 11 µM (active)
EC50 [22]: 5.78 µM (active)
EC50 [23]: 8.68 µM (active)
EC50 [2]: 4.74 µM (active)

CCN(CC)CCCNC(=O)c1ccccc1NC(=O)C1=CSCCO1
IC50 [3]: 4.48 µM (active)
IC50 [4]: 3.57 µM (active)

CCOC(=O)CCCCCC(=O)Nc1ccc2c(c1)CC(=O)N([C@H](C)CO)C[C@@H](C)[C@H](CN(C)Cc1ccc3c(c1)OCO3)O2
IC50 [24]: 30.8 µM (inactive)

CCCCCCC1CC(Cc2c(C)[nH]c3ccccc23)C(=O)O1 (configuration not stated)
EC50 [25]: > 100 µM (inactive)

O=C(CCCOc1ccc(Cl)cc1Cl)N/N=C/c1ccco1
IC50 [26]: 12 µM (inactive)
IC50 [27]: 12.7 µM (inactive)
IC50 [28]: 83.3 µM (inactive)

CC1(C)C(C=C(Cl)Cl)C1C(=O)OCc1cccc(Oc2ccccc2)c1 (configuration not stated) [PERMETHRIN]
AC50 [29]: 44.7 µM (inconclusive)
